Assay results reported in patent US20170029841A1, “METHODS AND COMPOSITIONS FOR SELECTIVE REGULATION OF PROTEIN EXPRESSION” (priority 2015, published 2017).

System: maize tissue pools (tassel, ear, leaf, root, stem)
Experiment: siRNA profiling microarray assay of mts-siRNA sequences across maize tissues
Details: for 01DKD2 V8-V9 Tassel relative signal value: germplasm 01DKD2, V8-V9 tassel; for 01DKD2 V10-V12 Tassel relative signal value: germplasm 01DKD2, V10-V12 tassel; for 01DKD2 Other Tissue relative signal value: germplasm 01DKD2, combined signals from other tissue; for LH244 V8-V9 Tassel relative signal value: germplasm LH244, V8-V9 tassel; for LH244 V10-V12 Tassel relative signal value: germplasm LH244, V10-V12 tassel; for LH244 Other Tissue relative signal value: germplasm LH244, combined signals from other tissue
Method: A siRNA profiling microarray assay was performed using μParaflo® Microfluidics chips provided by LC Sciences LLC (Houston, Tex., USA) with 1,200 sequences selected from the thousands of mts-siRNA sequences identified from the differential bioinformatic analysis. The microarray chips contained triplicate probes of the complementary sequence for each of the 1,200 mts-siRNA sequences. Total RNA was purified from 26 maize tissue pools (duplicate or triplicate tissue pools) from either LH244 (ATCC deposit number PTA-1173) or 01DKD2 (I294213) (ATCC deposit number PTA-7859) inbred plants. Each of the 26 RNA samples were hybridized with the microarray chips that contain probes for the 1,200 mts-siRNA. Hybridization images were collected using a GenePix® 4000B laser scanner (Molecular Devices, Sunnyvale, Calif.) and digitized using Array-Pro® Analyzer image analysis software (Media Cybernetics, Rockville, Md.). Relative signal values were derived by background subtraction and normalization. Differentially expressed signals were determined by t-test with p<0.05. From the microarray analysis, about 500 mts-siRNA from the 1,200 were identified as being highly tassel-specific.
Selected mts-siRNA sequences aligning to one of the six cDNA sequences were used for further microarray analysis to determine differential expression across maize tissues. Microarray analysis for mts-siRNA sequences of normalized signal values for V8-V9 tassel, V10-V12 tassel, or combined signals from the other tissue for maize germplasm LH244 and 01DKD2 is presented in Tables 3-10. […] Signal value results are measured as relative signal values and standard error (p<0.05) is represented by (STDR). […] The mts-siRNA sequence corresponds to the sense or antisense strand of the corresponding mts-siRNA target sequence in the cDNA sequence. The mts-siRNA sequence may have a single nucleotide, a two nucleotide, or a three nucleotide mismatch with the aligned portion of the cDNA sequence, and the mts-siRNA sequence may align to the sense strand or antisense strand of the cDNA sequence. The mts-siRNA sequences provided here are found across different maize germplasms.

Substance: SEQ ID NO: 40: mts-siRNA sequence aligning to cDNA SEQ ID NO: 18 (CCTTGCGCCTTAACTATCGTGC; expressed or natural sequence)
- 01DKD2 V8-V9 Tassel relative signal value: 7.5
- 01DKD2 V10-V12 Tassel relative signal value: 452
- 01DKD2 Other Tissue relative signal value: 2.8
- LH244 V8-V9 Tassel relative signal value: 119
- LH244 V10-V12 Tassel relative signal value: 448.7
- LH244 Other Tissue relative signal value: 1.5

Substance: SEQ ID NO: 41: mts-siRNA sequence aligning to cDNA SEQ ID NO: 18 (ACCCTTGCGCCTTAACTATCGTGC; expressed or natural sequence)
- 01DKD2 V8-V9 Tassel relative signal value: 5
- 01DKD2 V10-V12 Tassel relative signal value: 752
- 01DKD2 Other Tissue relative signal value: 3
- LH244 V8-V9 Tassel relative signal value: 185.5
- LH244 V10-V12 Tassel relative signal value: 702.7
- LH244 Other Tissue relative signal value: 0.9

Substance: SEQ ID NO: 42: mts-siRNA sequence aligning to cDNA SEQ ID NO: 18 (ACTACAGTGAGAGTCTAGGAAAGC; expressed or natural sequence)
- 01DKD2 V8-V9 Tassel relative signal value: 6
- 01DKD2 V10-V12 Tassel relative signal value: 588
- 01DKD2 Other Tissue relative signal value: 5.3
- LH244 V8-V9 Tassel relative signal value: 143.5
- LH244 V10-V12 Tassel relative signal value: 564.3
- LH244 Other Tissue relative signal value: 2.6

Substance: SEQ ID NO: 43: mts-siRNA sequence aligning to cDNA SEQ ID NO: 19 (AGCACTCGAGCTTTCACGCCAACA; expressed or natural sequence)
- 01DKD2 V8-V9 Tassel relative signal value: 4
- 01DKD2 V10-V12 Tassel relative signal value: 190.5
- 01DKD2 Other Tissue relative signal value: 4.3
- LH244 V8-V9 Tassel relative signal value: 52.5
- LH244 V10-V12 Tassel relative signal value: 147.3
- LH244 Other Tissue relative signal value: 1

Substance: SEQ ID NO: 44: mts-siRNA sequence aligning to cDNA SEQ ID NO: 19 (TTGGCGTGAAAGCTCGAGTGCTCC; expressed or natural sequence)
- 01DKD2 V8-V9 Tassel relative signal value: 15.5
- 01DKD2 V10-V12 Tassel relative signal value: 1443.5
- 01DKD2 Other Tissue relative signal value: 6.3
- LH244 V8-V9 Tassel relative signal value: 756
- LH244 V10-V12 Tassel relative signal value: 1340
- LH244 Other Tissue relative signal value: 1.8

Substance: SEQ ID NO: 45: mts-siRNA sequence aligning to cDNA SEQ ID NO: 19 (TAAATGGTCGTCGTATTAGCTGAT; expressed or natural sequence)
- 01DKD2 V8-V9 Tassel relative signal value: 253
- 01DKD2 V10-V12 Tassel relative signal value: 7195.5
- 01DKD2 Other Tissue relative signal value: 5.8
- LH244 V8-V9 Tassel relative signal value: 7901
- LH244 V10-V12 Tassel relative signal value: 9982.3
- LH244 Other Tissue relative signal value: 8.2

Substance: SEQ ID NO: 46: mts-siRNA sequence aligning to cDNA SEQ ID NO: 19 (CAGCTAATACGACGACCATTTAGG; expressed or natural sequence)
- 01DKD2 V8-V9 Tassel relative signal value: 252
- 01DKD2 V10-V12 Tassel relative signal value: 6778
- 01DKD2 Other Tissue relative signal value: 6.8
- LH244 V8-V9 Tassel relative signal value: 4502.5
- LH244 V10-V12 Tassel relative signal value: 8663.3
- LH244 Other Tissue relative signal value: 8.4

Substance: SEQ ID NO: 47: mts-siRNA sequence aligning to cDNA SEQ ID NO: 19 (TGGTGTGGTCGTTAGCTACTTTA; expressed or natural sequence)
- 01DKD2 V8-V9 Tassel relative signal value: 12.5
- 01DKD2 V10-V12 Tassel relative signal value: 1051.5
- 01DKD2 Other Tissue relative signal value: 4
- LH244 V8-V9 Tassel relative signal value: 157.5
- LH244 V10-V12 Tassel relative signal value: 900.7
- LH244 Other Tissue relative signal value: 15.5

Substance: SEQ ID NO: 48: mts-siRNA sequence aligning to cDNA SEQ ID NO: 19 (AAAGTAGCTAACGACCACACCACC; expressed or natural sequence)
- 01DKD2 V8-V9 Tassel relative signal value: 9.5
- 01DKD2 V10-V12 Tassel relative signal value: 470.5
- 01DKD2 Other Tissue relative signal value: 1
- LH244 V8-V9 Tassel relative signal value: 221
- LH244 V10-V12 Tassel relative signal value: 720.3
- LH244 Other Tissue relative signal value: 4.8

Substance: SEQ ID NO: 49: mts-siRNA sequence aligning to cDNA SEQ ID NO: 19 (TACTACTACTCCCTTCTCGG; expressed or natural sequence)
- 01DKD2 V8-V9 Tassel relative signal value: 57.5
- 01DKD2 V10-V12 Tassel relative signal value: 867
- 01DKD2 Other Tissue relative signal value: 55.3
- LH244 V8-V9 Tassel relative signal value: 340
- LH244 V10-V12 Tassel relative signal value: 1241.7
- LH244 Other Tissue relative signal value: 16.3

Substance: SEQ ID NO: 50: mts-siRNA sequence aligning to cDNA SEQ ID NO: 19 (CTGATATCTATGCTAATTCAGG; expressed or natural sequence)
- 01DKD2 V8-V9 Tassel relative signal value: 5.5
- 01DKD2 V10-V12 Tassel relative signal value: 326
- 01DKD2 Other Tissue relative signal value: 1.8
- LH244 V8-V9 Tassel relative signal value: 296
- LH244 V10-V12 Tassel relative signal value: 722
- LH244 Other Tissue relative signal value: 0

Substance: SEQ ID NO: 51: mts-siRNA sequence aligning to cDNA SEQ ID NO: 19 (TGCCGAAGTGTGTCGTGACATTGG; expressed or natural sequence)
- 01DKD2 V8-V9 Tassel relative signal value: 24.5
- 01DKD2 V10-V12 Tassel relative signal value: 275.5
- 01DKD2 Other Tissue relative signal value: 40
- LH244 V8-V9 Tassel relative signal value: 158
- LH244 V10-V12 Tassel relative signal value: 287
- LH244 Other Tissue relative signal value: 34.3

Substance: SEQ ID NO: 52: mts-siRNA sequence aligning to cDNA SEQ ID NO: 19 (CTGATATCTATGCTAATTCAGG; expressed or natural sequence)
- 01DKD2 V8-V9 Tassel relative signal value: 234
- 01DKD2 V10-V12 Tassel relative signal value: 3286.5
- 01DKD2 Other Tissue relative signal value: 3.5
- LH244 V8-V9 Tassel relative signal value: 4080
- LH244 V10-V12 Tassel relative signal value: 3629.7
- LH244 Other Tissue relative signal value: 5.5

Substance: SEQ ID NO: 53: mts-siRNA sequence aligning to cDNA SEQ ID NO: 20 (CCATGTAATACACAGTGTCGTC; expressed or natural sequence)
- 01DKD2 V8-V9 Tassel relative signal value: 16
- 01DKD2 V10-V12 Tassel relative signal value: 84
- 01DKD2 Other Tissue relative signal value: 1.5
- LH244 V8-V9 Tassel relative signal value: 76.5
- LH244 V10-V12 Tassel relative signal value: 145
- LH244 Other Tissue relative signal value: 2.2

Substance: SEQ ID NO: 54: mts-siRNA sequence aligning to cDNA SEQ ID NO: 20 (CATCGTCGTGCAGCTGGT; expressed or natural sequence)
- 01DKD2 V8-V9 Tassel relative signal value: 56
- 01DKD2 V10-V12 Tassel relative signal value: 231
- 01DKD2 Other Tissue relative signal value: 19.5
- LH244 V8-V9 Tassel relative signal value: 100.5
- LH244 V10-V12 Tassel relative signal value: 172
- LH244 Other Tissue relative signal value: 14.2

Substance: SEQ ID NO: 55: mts-siRNA sequence aligning to cDNA SEQ ID NO: 20 (CGGACATTTGCAGTTCTATGGT; expressed or natural sequence)
- 01DKD2 V8-V9 Tassel relative signal value: 73
- 01DKD2 V10-V12 Tassel relative signal value: 405.5
- 01DKD2 Other Tissue relative signal value: 1
- LH244 V8-V9 Tassel relative signal value: 377.5
- LH244 V10-V12 Tassel relative signal value: 581.7
- LH244 Other Tissue relative signal value: 1.1
